Measurements published in paper PMC10963751, “Solar-driven sugar production directly from CO2 via a customizable electrocatalytic–biocatalytic flow system” (Nature Communications, 2024).

Biological target: T1, BmfaldDH (Burkholderia multivorans, UniProt A0A0H3KP42)
T1 construct: gene fdhA2; pET28a, E. coli BL21(DE3), Ni-NTA purified (His-tagged)
T1 sequence (A0A0H3KP42 1-398): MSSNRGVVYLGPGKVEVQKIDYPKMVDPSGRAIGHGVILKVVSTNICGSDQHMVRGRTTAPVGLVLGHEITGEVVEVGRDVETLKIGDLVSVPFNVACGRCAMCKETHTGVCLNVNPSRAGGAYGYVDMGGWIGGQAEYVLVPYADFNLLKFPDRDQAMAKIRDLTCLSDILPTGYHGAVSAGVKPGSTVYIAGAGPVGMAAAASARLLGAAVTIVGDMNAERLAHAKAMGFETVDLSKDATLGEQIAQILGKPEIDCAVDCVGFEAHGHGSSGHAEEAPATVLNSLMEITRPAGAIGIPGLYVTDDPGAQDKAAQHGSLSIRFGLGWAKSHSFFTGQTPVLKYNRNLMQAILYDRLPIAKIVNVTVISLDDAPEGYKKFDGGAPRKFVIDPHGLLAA
Experiment: isothermal titration calorimetry
Type: binding

| SMILES | thermodynamic data |
| --- | --- |
| O=CO [formate] | isothermal titration calorimetry (ITC) to measure the thermodynamic data |
| NC(=O)C1=CN([C@@H]2O[C@H](COP(=O)(O)OP(=O)(O)OC[C@H]3O[C@@H](n4cnc5c(N)ncnc54)[C@H](O)[C@@H]3O)[C@@H](O)[C@H]2O)C=CC1 [NADH] | evaluating the interaction of BmfaldDH with formate and NADH |
